Values of other authors as cited in patent publication US3963579A, “Microbiological process for the production of pepstatins” (Sanraku-Ocean Co., Ltd., priority 1973, dated 1976).
Square brackets hold non-standard residues; d marks the D form. Peptide text beside a SMILES is read from it. * marks the point of attachment. Sta = CC(C)C[C@H](N)[C@@H](O)CC(=O)O; Isovaleryl = CC(C)CC(=O)*

Conditions: clinical, reported

For `CC(C)CC(=O)N[C@H](C(=O)N[C@H](C(=O)N[C@@H](CC(C)C)[C@@H](O)CC(=O)N[C@@H](C)C(=O)N[C@@H](CC(C)C)[C@@H](O)CC(=O)O)C(C)C)C(C)C` [pepstatin A] (Isovaleryl-VV[Sta]A[Sta]-OH), the “effect on gastric ulcers clinically” value is listed as “takes effect on gastric ulcers clinically”.
